Assay results published in article PMC8429736, “Pharmacological characterization of mutant huntingtin aggregate-directed PET imaging tracer candidates” (Scientific Reports, 2021).
Read-outs that look alike come from different tables or passages of the source.

Assays:
Q46 aggregates = experiment: RBA saturation binding, Q46 aggregates; conditions: tritiated compound; mean ± SD
Experimental: For N-terminal tag cleavage, proteins at 30 µM in 2 mL reaction tubes were incubated with 150 µg/mL thrombin (Sigma, T4648) in 50 mM Tris (pH 8.0), 150 mM NaCl, 2 mM CaCl2 for 16 h at 37 °C.
For radioligand binding assays (RBA) (see below) and radiometric filter trap assays (RAFTA) (see below), aggregates were separated by centrifugation (5 min 16,000×g) and resuspended with assay buffer (50 mM Tris pH 8.0, 150 mM NaCl) (see Supplementary Fig. S2B). […]
Samples were then transferred onto a 96-well GF/B filter plate (Perkin Elmer, #6005177) using a Filtermate Harvester, aspirated by vacuum and wells washed twice with 200 µL PBS. […] The tops of the plates were sealed, and the plates were incubated for 15 min in the dark and counted in a TopCount or MicroBeta2 reader (both Perkin Elmer).
For saturation binding experiments, aggregate lysate preparation and final concentration in the assay, assay buffer, incubation times and plate processing were identical to the competition format. […] Specific binding (SB) was calculated as full binding minus full competition (in the presence of excess unlabeled ligand) and a hyperbolic mono-phasic fit was applied using GraphPad Prism to determine Kd and Bmax.

Exon1-Q46 aggregates = target: T1, Exon1-Q46 aggregates (Homo sapiens, UniProt P42858, INS38QQQQQQQQQQQQQQQQQQQQQQQQQ); experiment: RBA competition binding against tritiated 3, Exon1-Q46 aggregates
T1 construct: MBP-HTT(1-89)Q46-His(6x); MBP (N, cleaved yes); made in house; host or cells: E. coli BL21 (DE3)
T1 sequence (P42858 with tags, fused parts or gaps with the stated changes): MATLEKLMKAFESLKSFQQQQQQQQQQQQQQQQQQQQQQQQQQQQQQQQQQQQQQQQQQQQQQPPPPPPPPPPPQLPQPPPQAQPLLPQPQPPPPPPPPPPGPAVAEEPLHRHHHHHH
Experimental: For the competition assay format, Q46 or Exon1-Q46 aggregates at 1 µM (sample volume 150 µL) were pre-incubated in a 96-well round bottom plate (Corning, #3365) for 20 min with test compounds at room temperature (assay buffer 50 mM Tris–HCl pH 8.0, 150 mM NaCl). […] Radioligand 3 at 0.3 nM was added and incubated for 1 h at 37 °C.
Samples were then transferred onto a 96-well GF/B filter plate (Perkin Elmer, #6005177) using a Filtermate Harvester, aspirated by vacuum and wells washed twice with 200 µL PBS. After drying the filter plates for 1 h at 55 °C the back of the plate was sealed with aluminum cover and 30 µL of scintillation fluid (Perkin Elmer, #6013641) per well was added. The tops of the plates were sealed, and the plates were incubated for 15 min in the dark and counted in a TopCount or MicroBeta2 reader (both Perkin Elmer).
Raw sample data collected as counts per minute (cpm) were normalized towards assay controls: 0% inhibition = radioligand + protein + vehicle, 100% inhibition = radioligand + protein + 1 µM unlabeled ligand. A 4-parameter […] fit was applied to generate IC50 values.

[1] = system: mHTT aggregates in zQ175 brain homogenates; experiment: RAFTA with zQ175 brain homogenates; format: binding, mouse
Experimental: For RAFTA and MSD assays, mouse brains were transferred to lysis tubes and individually homogenized 1:3 (w/v) in brain lysis buffer (10 mM Tris pH 7.4, 800 mM NaCl, 1 mM EDTA, 1 × Protease inhibitor, 10% Sucrose, 0.5% Triton X-100, Benzonase (1:1000)) using a pre-cooled MP FastPrep homogenizer (3 × 30 s, 6.0 m/sec). Crude homogenates were transferred to LoBind reaction tubes (Eppendorf) and centrifuged at 15,700×g for 10 min at 4 °C. The supernatant was collected, and the pellet fraction was resuspended in brain lysis buffer. Generally, a minimum of three whole brains were lysed and fractions were pooled after homogenization to reduce assay variability due to inter-animal variability.
The total protein concentration of samples was determined by BCA assay (ThermoFisher Scientific, #23227), according to standard procedures and protein concentrations were adjusted to 5–10 mg/mL in brain lysis buffer. […]
For RAFTA analysis, frozen mouse brain homogenates were thawed on the day of the experiment and diluted with assay buffer (50 mM Tris pH 8.0; 150 mM NaCl) to a concentration of 500 µg/mL total protein. […] In experiments where non-specific binding (NSB) was determined, the incubation medium contained 5 µM of non-labeled (cold) CHDI-180, which was added prior to the addition of radioligand and incubated for 20 min at room temperature. […]

[2] = system: mHTT aggregates in human HD brain sections; experiment: ARG, human post-mortem HD frontal cortex sections; format: binding
R6/2 brain homogenates = experiment: RBA with R6/2 brain homogenates; format: binding, mouse; conditions: data not shown
Experimental: For RBA in vitro binding assays, brain tissue was sliced (50 µm), weighed and homogenized in PBS (Gibco, 14190-94), 0.1% BSA with a glass pestle (10 strokes) at a concentration of 12–15 mg wet tissue per mL buffer. The crude homogenate concentration was then adjusted to 10 mg/mL (wet tissue) and stored as single-use aliquots at -80 °C.
For saturation binding experiments, aggregate lysate preparation and final concentration in the assay, assay buffer, incubation times and plate processing were identical to the competition format. Radioligand was titrated up to 100 nM. Raw cpm were converted into nM using a calibration line of total added radioligand without washing and filtering (spiked onto the filter plate and dried) (e.g., X) and normalized to the concentration of protein (e.g., Y) to finally obtain […] (e.g., X/Y). Specific binding (SB) was calculated as full binding minus full competition (in the presence of excess unlabeled ligand) and a hyperbolic mono-phasic fit was applied using GraphPad Prism to determine Kd and Bmax.

[3] = design: method as in PMID 34351166, PMID 32662649; conditions: cited from earlier work

## COc1ccc(COc2ccc3oc(-c4ccc(=O)n(C)n4)nc3c2)nc1 [CHDI-180]
Q46 aggregates
  Kd: 7.7 ± 3.3 nM
Exon1-Q46 aggregates; 0.3 nM tritiated 3 as radioligand, 1 µM aggregates, mean ± SD, read-out: IC50 Exon1-Q46
  IC50: 1.3 ± 0.7 nM
Exon1-Q46 aggregates; against tritiated 3, representative single experiment (Fig. 2B)
  Hill Slope: 0.89
Exon1-Q46 aggregates; against tritiated 3, representative single experiment (Fig. 2B), read-out: IC50
  IC50: 1.4 nM
[1]; 3 nM radioligand, cortices, striata or hippocampi of 9-month-old HET zQ175
  signal in pelleted material vs age-matched WT mice: > tenfold
[1]; 3-, 6-, 9-, 12-month-old HOM zQ175
  binding in brain homogenates with age: age-dependent increase
[2]; 1 nM radioligand plus cold compound
  NSB in HD brain sections: below 0.5 fmol/mg tissue
[2]; 1 nM radioligand, gray matter
  binding to frontal cortical sections from HD donors: 2.0 ± 0.4 fmol/mg tissue
[2]; 1 nM radioligand, human frontal cortex sections
  white matter binding: ≤ 0.5 fmol/mg tissue
R6/2 brain homogenates
  binding signal: no appropriate binding signal
[3]
  plasma, microsomal, and hepatocyte stability: acceptable
